Data taken from ChEMBL document CHEMBL3507680, “University of Dundee, Gates Library screen for HepG2 cell viability”.

Test: Human HepG2 cell viability assay in 384 well format
Format: toxicity, cell-based
Parameters: dose 125 nL, time 70.5 hour; cytotoxicity at 70.5 h: concentration not given beside the values
Settings: HepG2 cells, read-out: Inhibition

SMILES	cytotoxicity at 70.5 h [%]
CC(C)Oc1cccc(C(=O)C2CCCN(C(=O)c3ccoc3)C2)c1 (stereo unspecified)	-9.57
CCc1nc2c(N3CCC4(CC3)CC(=O)N(CC)C4)ncnc2o1	-1.14
CN(CCO)Cc1nnc(C2CCN(CC(C)(C)C)CC2)n1C	-4.91
CN(Cc1ccc(-n2ccnc2)cc1)Cc1ncc[nH]1	-6.87
CC(=O)N[C@@H]1CN(S(=O)(=O)Cc2ccccc2)C[C@H]1C(C)C	-0.553
CCCc1cc(CNc2cc(CCC)nc3ccnn23)on1	13.7
O=C(c1ccc(-n2cnnc2)cc1Cl)N1CCCC(O)(CO)CC1 (stereo unspecified)	15.6
Cc1cnc(C)c(Oc2ccc(CN3CCCC3)cc2Cl)n1	-4.06
CN1CCCCC1c1nc(Cc2cccc(F)c2)no1 (stereo unspecified)	-7.67
CC(=O)c1ccccc1NC(=O)CCN1CCSCC1	6.67
OCC1(O)CCN(Cc2noc(-c3ccccc3)n2)CC1	-6.37
c1ccc(Cc2noc(CCNC3CCOC4(CCOCC4)C3)n2)cc1 (stereo unspecified)	11.9
Cc1cnc(C)c(N2CCCC(CC3CC3)(C(=O)O)C2)n1 (stereo unspecified)	-4.19
C1CCC(c2nc3c(c(N4CCN5CCCC5C4)n2)CCNCC3)C1 (stereo unspecified)	-5.97
CCN(CC)c1ncccc1CNCc1cc2ccccc2s1	-2.63
CCCc1ccc(CN2CCN(C(=O)CC(C)C)[C@@H]3CS(=O)(=O)C[C@@H]32)o1	-9.85
COC(C)(C)C(=O)N1Cc2cnc(C(C)(C)C)nc2C1	-13.3
Cc1ccc(N2CCC(c3cc(Cc4ccccc4)n[nH]3)CC2)nn1	-9.6
Cc1cnc(NC(=O)c2cccc(CN(C)Cc3ncccc3C)c2)s1	8.51
CC(=O)Nc1ccc2nc(CN(C)Cc3noc(C)n3)ccc2c1	-4.56
Cc1nonc1-c1nc(C(C)C)nn1-c1ccc2c(c1)OCO2	-3.15
CCN1CC2(CCN(C(=O)c3nc4cc(C)ccn4c3F)CC2)CC1=O	24.7
CC(Nc1nc(-c2ccccc2)nc2c1CCNCC2)c1cccnc1 (stereo unspecified)	2.48

SMILES	cytotoxicity at 70.5 h [%]
CSCC(=O)N(C)Cc1cnn(-c2ccc(F)cc2)c1	3.1
CS(=O)(=O)N1CCC2(CC1)c1ccccc1[C@@H](N1CCSCC1)[C@@H]2O	-0.762
O=C(NCCn1cccc1)C(c1cccnc1)N1CCCC1 (stereo unspecified)	-0.962
N#Cc1cccc(N2CCC(CO)(CCc3ccccc3)CC2)n1	-5.51
CCCOCCNc1nc2c(s1)c(C)nn2C	24.8
O=C1CC[C@H]2CN(c3ncccc3F)CC[C@H]2N1CCc1ccccc1	17.3
CN(Cc1cc[nH]n1)C(=O)C1CC(=O)N(Cc2ccncc2)C1 (stereo unspecified)	-0.62
CCC(=O)Nc1cccc(OCC(=O)N2C[C@H]3CC[C@H]2C3)c1	-18.9
COCCN(C)Cc1cn(C)nc1-c1ccc2c(c1)OCCO2	-7.93
Cc1ncc(CN(C)C2CCCN(CCc3ccccc3)C2)n1C (stereo unspecified)	-9.12
COc1cccc(CN2CC(=O)N(c3ccccc3C)CC2C)c1OC (stereo unspecified)	-6.78
O=C(CSC(F)(F)F)N1CCC2(CCCN(C3CCOCC3)C2=O)C1 (stereo unspecified)	15
CCc1ccc(CN2CCCC(c3nn(C)c(=O)n3CC)C2)nc1 (stereo unspecified)	-9.19
CN(Cc1ccon1)C(=O)CN1C(=O)OC(C)(C)C1=O	-11.5
CC(C)N1CCC(C(=O)NC[C@H]2CCc3ccccc3O2)CC1	-17.4
Cc1nc2ccccn2c1CN1C[C@@H](CN(C)CCO)[C@@H](CO)C1	5.92
CC(C)(C)c1cc(CN2C[C@@H]3CC[C@H](C2)N(Cc2ccccn2)C3)n[nH]1	-9.78
CCN(CC)c1ncccc1CNC(=O)c1cnn(CC)c1	-3.9
O=C(C1CCOCC1)N1C[C@H]2CC[C@@H]1CN(Cc1ccncc1)C2	-6.05
Cc1ccc(C2(O)CCN(C(=O)CCn3c(C)cccc3=O)CC2)nc1	27.8
CC(C)(O)CCc1cccc(C(=O)N2Cc3cnn(CCO)c3C2)c1	-17.1
COc1ccc(F)cc1-n1cnc(CCNC(C)=O)c1	16.3
Cc1nccc(N2C[C@H](NC(=O)CNS(C)(=O)=O)[C@@H](C3CC3)C2)n1	-5

SMILES	cytotoxicity at 70.5 h [%]
Cc1cc(C(=O)N2CCCC(O)(CN3CCCC3)C2)ccc1Cl (stereo unspecified)	1.99
C[C@H](NC(=O)c1cnc(-c2ccccc2)nc1O)C(N)=O	-7.97
Cc1ccc(O)c(CN2CCCCC2CCN2CCOCC2)c1 (stereo unspecified)	-7.89
CCOCCn1nc(C)cc1C(=O)N1CC(C)(C)[C@@](C)(O)C1	-2.57
CCc1nccc(CN2CCC(CNC(=O)Nc3ccccc3)C2)n1 (stereo unspecified)	18.8
COc1ccc2c(c1)OCC(Cc1ccc(N)nc1C)C2 (stereo unspecified)	-8.63
FC(F)(F)CCc1ccnc(N2CCN(CCc3ccncc3)CC2)n1	-6.22
COCCC1(C(=O)O)CCCN(C(=O)c2cc(F)ccc2OC)C1 (stereo unspecified)	-10.6
CC(C)c1cc(C(=O)N2CCCC3(CCNC3)C2)no1 (stereo unspecified)	-3.49
Cc1ccnc(CC(C)N(C)c2cc(C3CCNCC3)nc(C)n2)c1 (stereo unspecified)	-3
O=C1N(CCc2ccccc2)CCCC12CCN(C(CO)CO)C2 (stereo unspecified)	-4.14
COc1cccc(-n2cc(-c3ccnc(N[C@H](CO)C(C)C)n3)cn2)c1	-2.44
Cc1nc2cc(CNC(=O)C3CC(=O)N(C4CCCC4)C3)ccc2n1C (stereo unspecified)	-7.58
CN(Cc1ccsc1)C(=O)C1CCC(=O)N(Cc2ccccn2)C1 (stereo unspecified)	-5.03
CCC(C(=O)N(C)C)N1CCC(c2nccn2Cc2cscn2)CC1 (stereo unspecified)	-10
COCc1nc(N(C)C/C=C/c2ccccc2)c2cnn(C)c2n1	-8.43
CCCOCCN1CCN(c2ncnc3[nH]ccc23)CC1	1.69
OC[C@@H]1CCCN1c1ccc(-c2nc(CCc3ccccc3)no2)cn1	-4.61
COCC(C)NCc1nc(-c2ccc(C)cc2)c(-c2ccccn2)[nH]1 (stereo unspecified)	-1.81
O=C(NCCCOc1cccnc1)c1cn(Cc2ccccc2F)nn1	-12.2
CCc1csc(CNC2CCN(c3ccc(C)cc3)CC2)n1	2.12
Cc1ccc(CNC(=O)CC2C(=O)NCCN2Cc2ccccc2C)s1 (stereo unspecified)	-0.0744
Cn1ccnc1CN(CCO)Cc1ccc(C(F)(F)F)cc1	-6.45

SMILES	cytotoxicity at 70.5 h [%]
Cc1noc(-c2ccc(N(C)Cc3nccs3)nc2)n1	-9.04
CNS(=O)(=O)CCn1cc(-c2ccc(OC)c(OC)c2)nn1	-4.16
Cc1ccccc1-n1cc(CNc2ncnc3c2CCNCC3)cn1	-13.6
Cc1nc(N(C)C)ncc1C(=O)NCCc1csc(-c2ccncc2)n1	-12.4
CCc1cc(N[C@H](C(N)=O)[C@@H](C)CC)n2nccc2n1	-1.65
CCCc1nnc(NC2CCN(C3CCCC3)CC2)o1	-12.5
COCc1ncc(CN2CCN(C)C(=O)C2C)cn1 (stereo unspecified)	-13.5
Cc1cc(CN(C)C2CCN(c3cccc(-c4cscn4)c3)CC2)on1	-2.57
COCCN(C)C(C(=O)O)c1ccc(C)c(C)c1 (stereo unspecified)	0.276
CC[C@@H](CO)NC(=O)c1cccc(CCC(C)(C)O)c1	-6.14
Cc1ccc2c(-c3nc4c([nH]3)CCNC4C(=O)O)cccc2n1 (stereo unspecified)	-0.899
CNC(=O)C1CCN(c2nccc(CCC(F)(F)F)n2)C1 (stereo unspecified)	-3.72
O=C(O)c1ccccc1C1CCN(C2CCN(c3ccccc3)CC2)C1 (stereo unspecified)	0.408
CC(=O)Nn1c(C)cc(CN2CCC(C(=O)N3CCCC3)CC2)c1C	-2.42
CC(C)N1CCCC(C(=O)N2CCN(c3nsc4ccccc34)CC2)C1 (stereo unspecified)	1.52
Cc1nc[nH]c1-c1c(-c2ccccc2)ncn1C1CCNC1 (stereo unspecified)	-1.75
O=C(c1cnc(O)cn1)N1CCCC1c1nc2cc(F)ccc2[nH]1 (stereo unspecified)	-4.45
COCc1ccc(C(=O)N2CCN(CC=C(C)C)[C@@H]3CS(=O)(=O)C[C@@H]32)o1	-0.472
CCCn1cc(-c2cc(-c3cnc(OC)nc3)c(C#N)c(N)n2)c(C)n1	-7.45
CN(Cc1nccs1)C1CCN(c2ncccn2)CC1	-8.38
CCC(Nc1nc(C)nc2onc(C)c12)c1nc(C)c(C)s1 (stereo unspecified)	24.7
CSC(C)CCN1CCC(n2cc(C3CCCCC3)nn2)CC1 (stereo unspecified)	-1.37
c1cncc(OCCCNC2COc3ccccc3C2)c1 (stereo unspecified)	-3.91

SMILES	cytotoxicity at 70.5 h [%]
Cc1cccnc1[C@H](C)NC(=O)c1cccc(CC2CCNCC2)c1	0.55
CCN(CC)C(=O)[C@@H]1C[C@@H](NC(=O)c2ccoc2)CN1C	25.9
Cn1ccc(NC(=O)CN2C[C@H]3CC[C@@H]2CN(S(C)(=O)=O)C3)n1	0.433
COCc1ncn(Cc2nc(-c3ccc(OC)c(OC)c3)oc2C)n1	27.5
COc1cccc(Cl)c1-c1cc(CN)ccc1F	-13.8
O=C(c1sccc1Cl)N1CCC(Cn2cc(CO)nn2)CC1	-4.2
Cc1ccc(N2CCC(C(O)Cc3ccccc3)CC2)nn1 (stereo unspecified)	1.34
NC(=O)COc1ccc(CN2CCC3(CC2)[C@H](O)C[C@@H]3O)cc1Cl	19.2
COCCN(Cc1cccs1)C(=O)c1ccc(=O)n(C)c1	-10.2
O=C(Nc1ccc2scnc2c1)N1CCN([C@H]2CCCC[C@@H]2O)CC1	-13.6
Cc1n[nH]c(C)c1CCNC(=O)C1CCCN(CC(N)=O)C1 (stereo unspecified)	-1.91
Cc1cnc(C)c(N2CCC(c3nccn3Cc3cscn3)CC2)n1	14.9
CC(C)[C@@H]1CN(C(=O)c2ccc3c(c2)CCCO3)C[C@H]1NS(C)(=O)=O	-1.93
CCCSc1ncc(CN2CCN(C)C(=O)C2C)cn1 (stereo unspecified)	20.3
Cc1[nH]c2ccc(CNc3cc(C(=O)NC(C)C)ccn3)cc2c1C	-1.62
Cc1cc(C(=O)N2CCC(CCn3cccn3)CC2)c(C)o1	-5.22
COc1ccc(CN2CCC3(CCCN(C)C3=O)C2)c(OC)c1C (stereo unspecified)	-10.1
O=C(c1cccc(S(=O)(=O)NCCCn2cccn2)c1)N1CCOCC1	-1.43
Cc1nc(CN2CCCn3cnc(COC(C)C)c3C2)cs1	-2.95
